In general, EC50 refers to the concentration giving half of the maximal effect. For orientation: IC50 means the concentration at which inhibition is half-maximal.

This is an account of results in patent publication US5565447A, “Indole derivatives” (Laboratorios Almirall S.A., priority 1992, dated 1996).

One data set has as its system Dog saphenous vein. As to the kind of experiment: Dog saphenous vein isometric recording (contraction, pD2). The format is cell-based, beagle dog. To be noted: Canis lupus familiaris; isolated lateral saphenous vein rings, 37° C., in presence of 5-HT2, H1 and muscarinic antagonists; serotonin 1 μM as reference standard. The procedure:
Isometric recordings were performed essentially as described by Humphrey et al (1988). Briefly, lateral saphenous vein ring preparations (3 mm. wide) removed from anaesthetized beagle dogs were suspended under 2g. resting tension, in 30 mL organ baths containing Krebs at 37° C. The experiments were carried out in the presence of 5-HT2, H1 and muscarinic antagonists and serotonin 1 μM was used as quantitative reference standard.
(Humphrey P. P. A.; Feniuk W.; Perren M. J.; Connor H. E.; Oxford A. W .; Coates I. H. and Butina D. (1988). GR 43175, a selective agonist for the 5-HT1-like receptor in dog isolated saphenous vein. Br. J. Pharmac. 94, 1123-1132).

In data set [1] the target is T1, 5HT1D receptors (Bos taurus, UniProt F1MGM3).
T1 construct: calf caudate nucleus membrane protein; from tissue; host or cells: calf caudate nucleus membranes
T1 sequence (F1MGM3 1-403): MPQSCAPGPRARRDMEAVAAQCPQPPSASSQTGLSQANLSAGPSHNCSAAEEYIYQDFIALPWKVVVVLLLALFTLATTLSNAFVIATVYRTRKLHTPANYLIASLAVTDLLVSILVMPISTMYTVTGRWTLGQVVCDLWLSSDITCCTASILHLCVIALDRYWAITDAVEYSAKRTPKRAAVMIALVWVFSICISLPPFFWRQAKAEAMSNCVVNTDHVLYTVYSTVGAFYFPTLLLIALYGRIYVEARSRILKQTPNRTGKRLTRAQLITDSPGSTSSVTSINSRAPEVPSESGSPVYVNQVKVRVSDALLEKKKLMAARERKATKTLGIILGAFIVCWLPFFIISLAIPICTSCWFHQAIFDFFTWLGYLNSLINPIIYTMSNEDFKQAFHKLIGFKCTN
As to the kind of experiment: Binding to 5HT1D receptors (125I-GTI displacement, calf caudate nucleus membranes). How it is done: (§1) Binding to 5HT1D Receptors
(§2) Assays were performed essentially as described by Bruinvels et al. Varying amounts of tested drugs were added to 0.25 mL final volume reaction that included 100 μg of calf caudate nucleus membrane protein, 100 pM (Serotonin-5-0-Carboxymethyl-Glycyl[^125 I]Tyrosinamide (^125 I-GTI), 4 mM CaCl2 and 50 mM Tris HCl buffer, pH 7.4. After incubation at 37° C. for 30 minutes, samples were filtered under reduced pressure using glass fibre filters. The filters were washed with ice-cold buffer and dried. Non-specific binding was defined as that obtained in the presence of 10 μM 5HT. Trapped radioactivity was quantified using a gamma counter. Displacement curves were constructed and the concentration displacing 50% of radioligand was calculated for each tested compound using non-linear regression. Data from at least three different assays run in duplicate was averaged. (Bruinvels A. T.; Lery H.; Palacios J. M. and Hoyer D. 5-HT1D binding sites in various species: similar pharmacological profile in dog, monkey, calf, guinea-pig and human brain membranes. Naunyn-Schmiedeberg's Arch. Pharmacol. (in press)).

The test system of data set [2] is 5HT1D receptors. The data set is described as above. Conditions: ratio of binding IC50 values, 3H-8-OH-DPAT over 125I-GTI. The procedure: as §1, §2
Another data set has as its target T2, 5HT1A receptors (Rattus norvegicus, UniProt P19327).
T2 sequence (P19327 1-422): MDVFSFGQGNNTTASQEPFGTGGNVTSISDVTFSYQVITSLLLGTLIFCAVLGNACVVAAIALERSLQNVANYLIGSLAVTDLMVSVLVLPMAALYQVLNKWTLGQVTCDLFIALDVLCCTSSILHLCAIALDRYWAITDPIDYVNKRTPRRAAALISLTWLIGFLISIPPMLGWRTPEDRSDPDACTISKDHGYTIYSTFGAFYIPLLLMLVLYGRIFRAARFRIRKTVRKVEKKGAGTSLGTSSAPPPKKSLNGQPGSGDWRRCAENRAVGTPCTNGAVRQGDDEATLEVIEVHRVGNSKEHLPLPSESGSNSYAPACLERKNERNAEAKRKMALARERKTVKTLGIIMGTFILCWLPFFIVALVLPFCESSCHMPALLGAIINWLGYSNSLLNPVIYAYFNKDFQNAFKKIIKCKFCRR
As to the kind of experiment: Binding to 5HT1A receptors (3H-8-OH-DPAT displacement, rat hippocampus membranes). How it is done: Binding to 5HT1A receptors
Assays were performed essentially as described by Gozlan et al (1983). Varying amounts of tested drugs were added to 1 mL final volume reaction mixtures that included 100 μg of rat hippocampus membrane protein, 0.5 nM ^3 H-8-OH-DPAT, 4 mM CaCl2, 0.1% ascorbic acid, 10 μM pargyline and 50 mM Tris HCl buffer, pH 7.4. After incubation at 25° C. for 30 minutes, samples were filtered under reduced pressure using glass fibre filters. The filters were washed with ice-cold buffer and dried. Non-specific binding was defined as that obtained in the presence of 10 μM 5HT. Radioactivity was quantified by scintillation counting and data was handled as described for the 5HT1D binding assay. (Gozlan H.; El Mestikawy S.; Pichat L.; Glowinski J. and Hamon M. (1983). Identification of presynaptic serotonin autoreceptors using a new ligand:^3 H-PAT. Nature 305, 140-142).

Another data set concerns 5-HT1D receptor. To be noted: background statement; cited from earlier work.
Data set [3] has as its system 5-HT1A receptor. Conditions: background statement; cited from earlier work.
In data set [4] the test system is 5-HT1A receptor. To be noted: attributed to affinity for 5-HT1A receptor; cited from earlier work.
For another data set, the system named is "5-HT1 -like" receptors. Conditions: agonistic action at "5-HT1 -like" receptors; background statement; cited from earlier work.
Setting [5] is: 5HT1D, calf caudate nucleus membrane, 100 pM 125I-GTI, pH 7.4, 37° C., 30 minutes, read-out: Binding IC50 125I-GTI.
[6] abbreviates: 5HT1A, rat hippocampus membrane, 0.5 nM 3H-8-OH-DPAT, pH 7.4, 25° C., 30 minutes, read-out: Binding IC50 3H-8-OH-DPAT.

Read-outs that look alike come from different tables or passages of the source.

Turning to `CNS(=O)(=O)Cc1ccc2[nH]cc(CCN(C)C)c2c1` [Sumatriptan, reference compound], the EC50 in the data set on Dog saphenous vein was 871 nM. Further, the IC50 on 5HT1D receptors [1] (setting [5]) turned out to be 10.4 ± 1 nM; at 5HT1A receptors, 460 ± 67 nM. Further, the 5HT1A/5HT1D in the data set with 5HT1D receptors [2] worked out at 44.2. In the data set with 5-HT1D receptor, the “affinity for 5-HT1D receptor” value was “high affinity for 5-HT1D receptor”. The “affinity for 5-HT1A receptor” value in the data set with 5-HT1A receptor [3] is given as “very important affinity for 5-HT1A receptor”. Besides, the “hypotension and other side effects” value in the data set on 5-HT1A receptor [4] is “causes hypotension by a central nervous system action and other side effects”.

Turning to `NCCc1c[nH]c2ccc(O)cc12` [serotonine, 5-Hydroxytryptamine], in the data set with "5-HT1 -like" receptors, the “vasoconstrictor action in the carotid vascular bed” value is listed as “vasoconstrictor action in the carotid vascular bed”.

On to `CCOC(=O)N1CCN(S(=O)(=O)Cc2ccc3[nH]cc(CCN(C)C)c3c2)CC1` [Compound 11], for which the EC50 with Dog saphenous vein is 339 nM. Further, the IC50 at 5HT1D receptors [1] was determined as 3.2 ± 0.3 nM; at 5HT1A receptors (setting [6]), 850 ± 40 nM. In addition, in the data set with 5HT1D receptors [2], the 5HT1A/5HT1D is 265.6.

With `CN(C)CCc1c[nH]c2ccc(CS(=O)(=O)N3CCCC3)cc12.Cl` [Compound 1, 1-[[3-(2-dimethylaminoethyl)-5-indolyl]methanesulphonyl]-pyrrolidine hydrochloride], the EC50 in the data set on Dog saphenous vein is 871 nM. The results for the IC50 at 5HT1D receptors [1] (setting [5]) and at 5HT1A receptors (setting [6]) were 10.7 ± 0.4 nM and 825 ± 69 nM, respectively. For the same compound, the 5HT1A/5HT1D in the data set with 5HT1D receptors [2] was found to be 77.1.

Consider `CN(C)CCc1c[nH]c2ccc(CS(=O)(=O)N3CCCCC3)cc12.Cl` [Compound 2, 1-[[3-(2-dimethylaminoethyl)-5-indolyl]methanesulphonyl]piperidine hydrochloride], for which the IC50 on 5HT1D receptors [1] came to 6.9 ± 0.4 nM; on 5HT1A receptors, 340 ± 0.5 nM. For the same compound, the 5HT1A/5HT1D in the data set with 5HT1D receptors [2] is 49.3.

In the case of `CN1C[C@H](C(=O)N[C@]2(C)O[C@@]3(O)[C@@H]4CCCN4C(=O)[C@H](Cc4ccccc4)N3C2=O)C=C2c3cccc4[nH]cc(c34)C[C@H]21` [ergotamine], the “vasoconstrictor action in the carotid vascular bed” value in the data set on "5-HT1 -like" receptors was “vasoconstrictor action in the carotid vascular bed”.
